Source: patent US11578077B2, “Spiro-oxazolones” (Hoffmann-La Roche Inc., priority 2013, dated 2023)

Molecular target: human V1a receptor (Homo sapiens (Human), UniProt P37288)
Test: human V1a receptor binding studies (3H-Vasopressin, SPA beads)
Conditions: membranes of HEK293 cells transiently transfected with human V1a receptor, Ki by Cheng-Prusoff; for Ki: read-out: pKi hV1a (converted)
Method: The human V1a receptor was cloned by RT-PCR from total human liver RNA. The coding sequence was subcloned in an expression vector after sequencing to confirm the identity of the amplified sequence. […] Cell membranes were prepared from HEK293 cells transiently transfected with the expression vector and grown in 20 liter fermenters with the following protocol.
50 g of cells are re-suspended in 30 ml freshly prepared ice cold Lysis buffer ([…] HEPES. 1 mM EDTA, 10 mM MgCl2 adjusted to pH=7.4+complete cocktail of protease inhibitor (Roche Diagnostics)). Homogenized with Polytron for 1 min and sonicated on ice for 2×2 minutes at 80% intensity (Vibracell sonicator). The preparation is centrifuged 20 min at 500 g at 4° C., the pellet is discarded and the supernatant centrifuged 1 hour at 43'000 g at 4° C. (19'000 rpm). The pellet is re-suspended in 12.5 ml Lysis buffer+12.5 ml Sucrose 20% and homogenized using a Polytron for 1-2 min. The protein concentration is determined by the Bradford method and aliquots are stored at −80° C. until use. For binding studies 60 mg Yttrium silicate SPA beads (Amersham) are mixed with an aliquot of membrane in binding buffer (50 mM Tris, 120 mM NaCl, 5 mM KCl, 2 mM CaCl2, 10 mM MgCl) for 15 minutes with mixing. 50 μl of bead/membrane mixture is then added to each well of a 96 well plate, followed by […] of 4 nM 3H-Vasopressin (American Radiolabeled Chemicals). For total binding measurement 100 μl of binding buffer are added to the respective wells, for non-specific binding 100 μl of […] cold vasopressin and for compound testing 100 μl of a serial dilution of each compound in 2% DMSO. The plate is incubated 1 h at room temperature, centrifuged 1 min at 1000 g and counted on a Packard Top-Count. Non-specific binding counts are subtracted from each well and data is normalized to the maximum specific binding set at 100%. To calculate an IC 50 the curve is fitted using a non-linear regression model (XLfit) and the Ki is calculated using the Cheng-Prussoff equation.

human V1a receptor, sequence (P37288 whole entry): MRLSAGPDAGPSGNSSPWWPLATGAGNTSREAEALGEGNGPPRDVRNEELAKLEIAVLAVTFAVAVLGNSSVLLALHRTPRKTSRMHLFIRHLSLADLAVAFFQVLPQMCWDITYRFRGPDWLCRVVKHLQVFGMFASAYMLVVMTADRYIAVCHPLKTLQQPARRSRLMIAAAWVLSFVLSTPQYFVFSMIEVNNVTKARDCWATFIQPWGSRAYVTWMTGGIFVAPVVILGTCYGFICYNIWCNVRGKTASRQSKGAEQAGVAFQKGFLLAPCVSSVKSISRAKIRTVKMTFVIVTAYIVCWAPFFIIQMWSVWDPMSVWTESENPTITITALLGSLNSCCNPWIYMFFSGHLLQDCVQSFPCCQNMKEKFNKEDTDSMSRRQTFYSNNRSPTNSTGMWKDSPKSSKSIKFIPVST

SMILES | pKi hV1a | Ki [nM]
Cc1ccc2c(c1)C[C@]1(C2)OC(N2CCC3(CC2)OC(=O)c2ccccc23)=NC1=O (stereo in doubt) [Example 24, (−)-1′-[5-methyl-4′-oxo-1,3-dihydro-4′H-spiro[indene-2,5′,-[1,3]oxazol]-2′-yl]-3H-spiro[2-benzofuran-1,4′-piperidin]-3-one] | 8.6 | 
Cc1cc2c(cc1C)CC1(C2)OC(N2CCC3(CC2)OCc2ccccc23)=NC1=O [Example 25, 5,6-dimethyl-2′-(1′H,3H-spiro[2-benzofuran-1,4′-piperidin]-1′-yl)-1,3-dihydro-4′H-spiro[indene-2,5′-[1,3]oxazol]-4′-one] | 7.1 | 
CC1(C)OC2(CCN(C3=NC(=O)C4(Cc5ccccc5C4)O3)CC2)c2ccc[n+]([O-])c21 [Example 70, 2′-(7,7-dimethyl-1-oxido-1′H,7H-spiro[furo[3,4-b)pyridine-5,4′-piperidin]-1′yl)-1,3-dihydro-4′H-spiro[indene-2,5′-[1,3]oxazol]-4′-one] | 7.3 | 
Cc1ccc2c(n1)COC21CCN(C2=NC(=O)C3(Cc4ccccc4C3)O2)CC1 [Example 48, 2′-(2-methyl-1′H,7H-spiro[furo[3,4-b]pyridine-5,4′-piperidin]-1′-yl)-1,3-dihydro-4′H-spiro[indene-2,5′-[1,3]oxazol]-4′-one] | 7.9 | 
O=C1OC2(CCN(C3=NC(=O)C4(Cc5ccccc5C4)O3)CC2)c2cc(Cl)ccc21 [Example 17, 6-chloro-1′-(4-oxo-1,3-dihydro-4′H-spiro[indene-2,5′-[1,3]oxazol]-2′-yl)-3H-spiro[2-benzofuran-1,4′-piperidin]-3-one] | 8.6 | 
O=C1OC2(CCN(C3=NC(=O)C4(Cc5ccccc5C4)O3)CC2)c2c1ccnc2Cl [Example 55, 4-chloro-1′-(4-oxo-1,3-dihydro-4′H-spiro[indene-2,5′-[1,3]oxazol]-2′-yl)-1H-spiro[furo[3,4-c]pyridine-3,4′-piperidin]-1-one] | 6.5 | 
COc1ccc2c(c1)C1(CCN(C3=NC(=O)C4(Cc5ccccc5C4)O3)CC1)OC2=O [Example 10, 6-methoxy-1′-(4′-oxo-1,3-dihydro-4′H-spiro[indene-2,5′-[1,3]oxazol]-2′-yl)-3H-spiro[2-benzofuran-1,4′-piperidin]-3-one] | 8.6 | 
Cc1cnc2c(c1)COC21CCN(C2=NC(=O)C3(Cc4ccccc4C3)O2)CC1 [Example 44, 2′-(3-methyl-1′H,5H-spiro[furo[3,4-b]pyridine-7,4′-piperidin]-1′-yl)-1,3-dihydro-4′H-spiro[indene-2,5′-[1,3]oxazol]-4′-one] | 8.7 | 
O=C1OC2(CCN(C3=NC(=O)[C@]4(CCc5ccccc5C4)O3)CC2)c2ccccc21 (single isomer, unassigned; enantiomer a) [Example 66, 1′-[4′-oxo-3,4-dihydro-1H,4′H-spiro[naphthalene-2,5′-[1,3]oxazol]-2′-yl]-1′H,3H-spiro[2-benzofuran-1,4′-piperidin]-3-one enantiomer A] |  | 0.794
C[Si](C)(C)c1ccc2c(c1)CC1(C2)OC(N2CCC3(CC2)OCc2ccccc23)=NC1=O (centres unmarked) [Example 29, 2′-(1′H,3H-spiro[2-benzofuran-1,4′-piperidin]-1′-yl)-5-(trimethylsilyl)-1,3-dihydro-4′H-spiro[indene-2,5′-[1,3]oxazol]-4′-one] | 6.2 | 
COc1cccc2c1CC1(C2)OC(N2CCC3(CC2)OC(C)(C)c2ncccc23)=NC1=O (centres unmarked) [Example 68, 2′-(7,7-dimethyl-1′H,7H-spiro[furo[3,4-b]pyridine-5,4′-piperidin]-1′-yl)-4-methoxy-1,3-dihydro-4′H-spiro[indene-2,5′-[1,3]oxazol]-4′-one] | 8.1 | 
O=C1N=C(N2CCC3(CC2)OCc2cccnc23)OC12Cc1ccccc1C2 [Example 36, 2′-(1′H,5H-spiro[furo[3,4-b]pyridine-7,4′-piperidin]-1′-yl)-1,3-dihydro-4′H-spiro[indene-2,5′-[1,3]oxazol]-4′-one] | 8.6 | 
CC1(C)OC2(CCN(C3=NC(=O)C4(Cc5ccccc5C4)O3)CC2)c2cccnc21 [Example 39, 2′-(7,7-dimethyl-1′H,7H-spiro[furo[3,4-b]pyridine-5,4′-piperidin]-1′-yl)-1,3-dihydro-4′H-spiro[indene-2,5′-[1,3]oxazol]-4′-one] | 9.1 | 
CC1(C)OC2(CCN(C3=NC(=O)C4(Cc5ccc(O)cc5C4)O3)CC2)c2cccnc21 (centres unmarked) [Example 41, 2′-(7,7-dimethyl-1′H,7H-spiro[furo[3,4-b]pyridine-5,4′-piperidin]-1′-yl)-5-hydroxy-1,3-dihydro-4′H-spiro[indene-2,5′-[1,3]oxazol]-4′-one] | 8.9 | 
O=C1N=C(N2CCC3(CC2)OCc2ccccc23)OC12Cc1cnc(CF)cc1C2 (centres unmarked) [Example 59, 3-(fluoromethyl)-2′-(1′H,3H-spiro[2-benzofuran-1,4′-piperidin]-1′-yl)-5,7-dihydro-4′H-spiro[cyclopenta[c]pyridine-6,5′-[1,3]oxazol]-4′-one] | 7.6 | 
O=C1OC2(CCN(C3=NC(=O)C4(Cc5ccccc5C4)O3)CC2)c2c(F)cccc21 [Example 16, 7-fluoro-1′-(4′-oxo-1,3-dihydro-4′H-spiro[indene-2,5′-[1,3]oxazol]-2′-yl)-3H-spiro[2-benzofuran-1,4′-piperidin]-3-one] | 8.7 | 
Cc1ccc2c(c1)C[C@@]1(C2)OC(N2CCC3(CC2)OC(=O)c2ccccc23)=NC1=O [Example 23, (+)-1′-[5-methyl-4′-oxo-1,3-dihydro-4′H-spiro[indene-2,5′-[1,3]oxazol]-2′-yl]-3H-spiro[2-benzofuran-1,4′-piperidin]-3-one] | 7.3 | 
Cc1ccc2c(c1)C(=O)OC21CCN(C2=NC(=O)C3(Cc4ccccc4C3)O2)CC1 [Example 6, 5-methyl-1′-(4′-oxo-1,3-dihydro-4′H-spiro[indene-2,5′-[1,3]oxazol]-2′-yl)-3H-spiro[2-benzofuran-1,4′-piperidin]-3-one] | 8.8 | 
O=C1N=C(N2CCC3(CC2)OCc2ccccc23)OC12Cc1cnc(CCl)cc1C2 (centres unmarked) [Example 57, 3-(chloromethyl)-2′-(1′H,3H-spiro[2-benzofuran-1,4′-piperidin]-1′-yl)-5,7-dihydro-4′H-spiro[cyclopenta[c]pyridine-6,5′-[1,3]oxazol]-4′-one] | 6.3 | 
Cc1cnc2c(c1)C1(CCN(C3=NC(=O)C4(Cc5ccccc5C4)O3)CC1)OC2=O [Example 53, 3-methyl-1′-(4′-oxo-1,3-dihydro-4′H-spiro[indene-2,5′-[1,3]oxazol]-2′-yl)-7H-spiro[furo[3,4-b]pyridine-5,4′-piperidin]-7-one] | 7.4 | 
O=C1OC2(CCN(C3=NC(=O)C4(Cc5ccccc5C4)O3)CC2)c2ccc(F)cc21 [Example 15, 5-fluoro-1′-(4′-oxo-1,3-dihydro-4′H-spiro[indene-2,5′-[1,3]oxazol]-2′-yl)-3H-spiro[2-benzofuran-1,4′-piperidin]-3-one] | 8.9 | 
O=C1OC2(CCN(C3=NC(=O)[C@@]4(CCc5ccccc5C4)O3)CC2)c2ccccc21 (single isomer, unassigned; enantiomer b) [Example 67, 1′-[4′-oxo-3,4-dihydro-1H,4′H-spiro[naphthalene-2,5′-[1,3]oxazol]-2′-yl]-1′H,3H-spiro[2-benzofuran-1,4′-piperidin]-3-one enantiomer B] |  | 3.98
O=C1OC2(CCN(C3=NC(=O)C4(Cc5ccccc5C4)O3)CC2)c2cnc(Cl)cc21 [Example 54, 6-chloro-1′-(4′-oxo-1,3-dihydro-4′H-spiro[indene-2,5′-[1,3]oxazol]-2′-yl)-1H-spiro[furo[3,4-c]pyridine-3,4′-piperidin]-1-one] | 7.4 | 
O=C1OC2(CCN(C3=NC(=O)C4(CCCc5ccccc54)O3)CC2)c2ccccc21 (centres unmarked) [Example 63, 1′-(4′-oxo-3,4-dihydro-2H,4′H-spiro[naphthalene-1,5′-[1,3]oxazol]-2′-yl)-3H-spiro[2-benzofuran-1,4′-piperidin]-3-one] | 6.7 | 
O=C1N=C(N2CCC3(CC2)OCc2ccccc23)OC12Cc1ccc(F)cc1C2 (centres unmarked) [Example 30, 5-fluoro-2′-(1′H,3H-spiro[2-benzofuran-1,4′-piperidin]-1′-yl)-1,3-dihydro-4′H-spiro[indene-2,5′-[1,3]oxazol]-4′-one] | 9.0 | 
Cc1ccc2c(n1)C1(CCN(C3=NC(=O)C4(Cc5ccccc5C4)O3)CC1)OC2=O [Example 43, 2-methyl-1′-(4′-oxo-1,3-dihydro-4′H-spiro[indene-2,5′-[1,3]oxazol]-2′-yl)-5H-spiro[furo[3,4-b]pyridine-7,4′-piperidin]-5-one] | 8.3 | 
